Measurements: patent US20240156965A1, “DICHALCOGENIDE PRODRUGS” (Ludwig-Maximilians-Universitat Munchen, priority 2021, published 2024)
“Also recorded” adds a separate entry of the source.

Key:
TrxR1 = biological target: T1, TrxR1 (Homo sapiens, UniProt Q16881); test: Cellular quantitative HTS for TrxR1 inhibitors using P6 (LOPAC1280); assay type: cell-based; settings: for activity / hit status in cellular P6 screen: hits classed up to 20 μM; for pIC50 comparison between BAY 11-7085 and BAY 11-7082: despite ca. 1.1 Log P difference
T1 construct: endogenous in cells
T1 sequence (Q16881 151-649 limits assumed): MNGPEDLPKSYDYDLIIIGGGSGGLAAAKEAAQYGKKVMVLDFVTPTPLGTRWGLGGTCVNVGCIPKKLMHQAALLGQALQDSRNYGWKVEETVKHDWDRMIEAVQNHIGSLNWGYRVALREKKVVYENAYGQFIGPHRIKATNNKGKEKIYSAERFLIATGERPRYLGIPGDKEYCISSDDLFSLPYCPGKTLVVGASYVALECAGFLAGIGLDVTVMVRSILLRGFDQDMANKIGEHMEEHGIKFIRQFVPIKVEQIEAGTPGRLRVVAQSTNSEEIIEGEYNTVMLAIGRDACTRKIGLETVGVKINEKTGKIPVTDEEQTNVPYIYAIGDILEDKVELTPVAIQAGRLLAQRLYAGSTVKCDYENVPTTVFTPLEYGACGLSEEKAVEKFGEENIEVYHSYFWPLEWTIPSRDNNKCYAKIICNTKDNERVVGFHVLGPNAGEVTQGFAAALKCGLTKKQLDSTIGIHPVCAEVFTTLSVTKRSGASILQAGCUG
From the text: The stability and constant environment of P6's signal (crystallising fluorophore, protected from interferences), its low background (ESIPT quenched probe) and low crosstalk (high Stokes shift), and its ability to directly generate a readout, were promising features. We therefore set out to develop the first cellular quantitative HTS (qHTS) assay for TrxR1 inhibitors, using P6, and performing pilot screening with the 1280-compound LOPAC1280 library. LOPAC is intended to cover drugs and drug-like scaffolds with much comparative data on target selectivity, potency, cellular and in vivo bioactivity, without focus on any particular mechanism of action. The LOPAC library was used in the only previously reported qHTS enzymatic TrxR assay (in 2011), and there is 82% overlap in composition between the 2011 and 2021 version (Prast-Nielsen, S. et al., Free Radical Biology and Medicine 50, 1114-1123 (2011)).
Cellular screening using P6, optimized for HTS with 1536-well plates (assay volume 6 μL, 500 cells/well) over 4 h run-time, reproduced the strong performance seen in 96-well format. Untreated vs no-cell controls gave a 7-fold raw signal to background ratio [S:B] without background compensation, with a high Z′ value of 0.64, suitable for HTS (FIG. 5a). P6 signal was linear over the assay time, and linearly reflected turnover rate (varied P6 concentration or cell count; FIG. 5b). Pre-incubating cells for 1 h with reference inhibitors prior to P6 gave concentration-dependent inhibition consistent with reported values (FIG. 5c).
A LOPAC1280 screen using this assay protocol performed well (Z′=0.63, S:B 7:1). Compounds with apparent toxicity within the assay time were excluded by a separate viability counter-assay. Moderate cut-off criteria (IC50<20 μM and curve form) gave a <1.5% hit rate (18 of 1278 compounds, plus TRi-1 and TRi-2; FIG. 5d). […] Matching expectations, with the exception of auranofin, none of these species approached the potency of TRi-1 (Stafford, W. C. et al., Sci. Transl. Med. 10, eaaf7444 (2018)).

TrxR [1] = settings: cell-free; cited from earlier work
TrxR [2] = biological target: T2, TrxR (Rattus norvegicus, UniProt O89049); settings: cited from earlier work
T2 sequence (O89049 1-499): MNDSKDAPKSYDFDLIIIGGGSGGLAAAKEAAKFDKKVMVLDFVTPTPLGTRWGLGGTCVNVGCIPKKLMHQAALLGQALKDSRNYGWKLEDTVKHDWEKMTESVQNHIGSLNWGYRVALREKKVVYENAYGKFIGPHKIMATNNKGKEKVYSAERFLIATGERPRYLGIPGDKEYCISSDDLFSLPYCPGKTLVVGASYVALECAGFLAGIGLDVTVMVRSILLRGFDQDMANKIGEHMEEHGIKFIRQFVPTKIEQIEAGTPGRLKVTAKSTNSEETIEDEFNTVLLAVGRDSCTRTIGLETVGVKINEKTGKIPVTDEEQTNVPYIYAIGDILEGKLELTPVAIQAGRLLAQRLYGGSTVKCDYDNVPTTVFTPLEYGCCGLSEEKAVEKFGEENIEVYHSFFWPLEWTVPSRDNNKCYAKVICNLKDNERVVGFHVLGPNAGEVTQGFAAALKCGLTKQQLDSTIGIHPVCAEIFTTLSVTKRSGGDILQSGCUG

[3] = Challenge with monothiol reductant GSH, cell-free fluorogenic cargo release; assay type: physicochemical; settings: 10 μM probe; for sensitivity to GSH in GSH titration, signal F/F^TCEP: 3 h timepoint, GSH up to 10 mM; for resistance to GSH-triggered release of fluorescent cargo PQ-OH (timecourse): supraphysiological GSH 10 mM, TE buffer pH 7.4, 37 °C; for cargo release when challenged with GSH / GSH system reductants: relevant cellular levels
From the text: (§1) This cell-free assay examined the stability of dichalcogenide-based reduction-triggered compounds of the invention when exposed to cellular monothiol reductant GSH, and its cellular partner reductants glutathione reductase (GR) and glutaredoxins (Grx1 and Grx2).
(§2) Assay Conditions: A black 96-well plate with black bottom was charged with solutions of fluorophore-releasing reduction-triggered probes that are compounds of the invention (P1, P2, P3, P6 and P7) or that are not compounds of the invention and reveal the performance of prior art systems (disulfide X26), reaching 100 μL final volume, 1% final DMSO, 10 μM probe, aq. TE buffer (pH 7.4), with the indicated concentrations of reductant (in FIG. 1a) or concentration ratios of reductant to probe (in FIG. 1b-d). TCEP (100 μM) was used as a quantitative reference reductant; and in the GR/GSH/Grx assays (FIG. 1c-d), GR was used at 20 nM, GSH at 100 μM, to maintain Grx in a reduced state suitable for challenging the probes without supplying a high concentration of either GSH or GR. Reaction mixtures were incubated at 37° C. for up to 6 h while measuring fluorescence intensity F over time, using a BMG Labtech FLUOstar Omega platereader (λexc=355 nm, λem=530 nm).
(§3) Data Representation: F^TCEP is the maximum possible fluorescence increase, corresponding to complete reduction-triggered cargo release by the TCEP incubation. F/F^TCEP thus gives the fluorescence intensity, as a fraction of the maximum possible fluorescence signal, at the indicated times.

[4] = system: glutaredoxins (Grx1 and Grx2) with GR and GSH; test: Challenge with GR/GSH/Grx system reductants, cell-free; assay type: biochemical; settings: 10 μM probe, GR 20 nM, GSH 100 μM, Grx1 or Grx2 up to physiological concentrations
From the text: as §1, §2, §3

[5] = biological target: T3, human recombinant thioredoxin reductase 1 (TrxR1) (Homo sapiens, UniProt Q16881); test: Enzymatic activation assay with TrxR1, cell-free; assay type: biochemical; settings: 10 μM probe, 20 nM TrxR1, 100 μM NADPH, 37 °C
T3 sequence (Q16881 1-499 isoform Q16881-5): T1 sequence (Q16881 151-649 limits assumed)
Experimental: This cell-free assay (see FIG. 2) examined the processing of dichalcogenide-based fluorophore-releasing reduction-triggered probes that are compounds of the invention, by components of the cellular thioredoxin system.
Assay conditions and data representation: A black 96-well plate with black bottom was charged with solutions of probes (P1, P2, P3, P6, P7) to reach final reaction conditions: 100 μL of aq. TE buffer (pH 7.4), 10 μM probe concentration, 1 vol % DMSO, and 20 nM of human recombinant thioredoxin reductase 1 (TrxR1; in FIG. 1a), or 20 nM of either TrxR1 or thioredoxin reductase Sec498Cys mutant (TrxR1 U498C or “mut”; in FIG. 1b), or the indicated probe-to-reductant concentration ratios of TrxR1 (in FIG. 1c) or human recombinant thioredoxin 1 (Trx1; in FIG. 1d); with the final step being the addition of NADPH (100 μM final). The reaction mixtures were incubated at 37° C. for 3 to 6 h as shown with timecourse measurements of fluorescence as for FIG. 1. Data representation as for FIG. 1.

[6] = system: HeLa cervical cancer cell line; test: Cellular reduction assay in HeLa cells (fluorescence timecourse); assay type: cell-based, human; settings: time- and dose-dependence
Experimental: Assay Conditions: Cells were cultured under standard conditions (Gao, L. et al. Cell Chemical Biology 2021, 28, 1-14. https://doi.org/10.1016/j.chembiol.2020.11.007), left to adhere for 24 h, then compounds were added to 100 μM with 1% vol DMSO. Fluorescence timecourse measurements were acquired as in the chemoreductant assay, with all conditions in triplicates.
Data Representation: F.I.(t) is the fluorescence intensity signal increase as compared to time zero signal (fluorescence intensity immediately following compound addition, before probe activation could occur), in arbitrary units although with the same detection settings for all probes releasing the same cargo. This corresponds to reduction-triggered cargo release.

NC1(C(=O)O)CCc2cc(C(=O)O)ccc21 (stereo not drawn) [AIDA]
activity / hit status in cellular P6 screen (TrxR1): non-obvious hit

Cc1ccc(S(=O)(=O)/C=C/C#N)cc1 [BAY 11-7082]
pIC50 comparison between BAY 11-7085 and BAY 11-7082 (TrxR1): no change

CC(C)(C)c1ccc(S(=O)(=O)/C=C/C#N)cc1 [BAY 11-7085]
pIC50 comparison between BAY 11-7085 and BAY 11-7082 (TrxR1): no change

CN(N=O)c1cc(O)ccc1O [Dephostatin]
ratio of cell-free to cellular potency (potency loss in cells) (TrxR1; shared hits of cellular and cell-free qHTS): > 10 fold

OC1C[Se][Se]CC1O (stereo not drawn) [E3]
reduction by TrxR in vitro (TrxR [1]): processed by TrxR

NC1CC[Se][Se]C1 (stereo not drawn) [E4]
reduction by TrxR in vitro (TrxR [1]): resistant to TrxR

Oc1ccc2ccccc2c1SSc1c(O)ccc2ccccc12 [IPA-3]
activity / hit status in cellular P6 screen (TrxR1): active in the cellular screen | activity in enzymatic (cell-free) TrxR screen (TrxR [2]): inactivity in the enzymatic assay

CN(C(=O)Oc1ccc(Cl)cc1-c1nc2ccc(Cl)cc2c(=O)[nH]1)C1CCS[Se]C1 (stereo not drawn) [P1]
sensitivity to GSH in GSH titration, signal F/F^TCEP [3]: completely insensitive | resistance to GSH-triggered release of fluorescent cargo PQ-OH (timecourse) [3]: entirely | cargo release when challenged with GSH / GSH system reductants [3]: totally resisted releasing cargo

CN(C(=O)Oc1ccc(Cl)cc1-c1nc2ccc(Cl)cc2c(=O)[nH]1)C1CC[Se]SC1 (stereo not drawn) [P2]
sensitivity to GSH in GSH titration, signal F/F^TCEP [3]: very low sensitivity | resistance to GSH-triggered release of fluorescent cargo PQ-OH (timecourse) [3]: majorly | cargo release when challenged with GSH / GSH system reductants [3]: high resistance to GSH challenge | triggering by GR/GSH/Grx systems [4]: total resistance to Grx challenge

CN(C(=O)Oc1ccc(Cl)cc1-c1nc2ccc(Cl)cc2c(=O)[nH]1)C1CC[Se][Se]C1 (stereo not drawn) [P3]
sensitivity to GSH in GSH titration, signal F/F^TCEP [3]: completely insensitive | resistance to GSH-triggered release of fluorescent cargo PQ-OH (timecourse) [3]: entirely | cargo release when challenged with GSH / GSH system reductants [3]: totally resisted releasing cargo | cargo release on exposure to TrxR1 (timecourse) [5]: stable to this challenge; also recorded: nonresponsive to TrxR

CN1CCN(C(=O)CCN(C(=O)Oc2ccc(Cl)cc2-c2nc3ccc(Cl)cc3c(=O)[nH]2)C2CCCCC2)CC1 [X28, reference compound]
fluorescence signal generation F.I.(t) in HeLa cells [6]: does not generate signal; also recorded: did not generate signal

OC[C@H]1O[C@H]([S-])[C@H](O)[C@@H](O)[C@@H]1O.[Au+] [aurothioglucose]
pIC50/potency lower than auranofin (TrxR1; relative to ester prodrug auranofin): 10 fold

C=CCN1CCc2c(cc(O)c(O)c2Cl)C(c2ccccc2)C1 (stereo not drawn) [chloro-APB]
activity / hit status in cellular P6 screen (TrxR1): active in the cellular screen | activity in enzymatic (cell-free) TrxR screen (TrxR [2]): inactivity in the enzymatic assay

COC[C@H]1OC(=O)c2coc3c2[C@@]1(C)C1=C(C3=O)[C@@H]2CCC(=O)[C@@]2(C)C[C@H]1OC(C)=O [wortmannin]
activity in enzymatic (cell-free) TrxR screen (TrxR [2]): activity in the enzymatic screen
